Experimental data published in US12077503B2, “Substituted cyclic amides and their use as herbicides” (FMC CORPORATION, priority 2015, dated 2024).

Key:
Format in all cases: in vivo
[1] = tested on: ryegrass, Italian (Italian ryegrass, Lolium multiflorum); test: Test A postemergence; conditions: Lolium multiflorum, post-emergence, 240 h
How it was run: (§1)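 Each rating is a visual injury score from 0 to 100 given about 10 d after treatment, judged against untreated controls kept alongside in the greenhouse. In loam soil–sand blend, seeds got a preemergence directed soil spray, while postemergence plants were 2 to 10 cm tall at spraying.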

[2] = tested on: giant foxtail (Setaria faberii); test: Test A postemergence; conditions: Setaria faberi, post-emergence, 240 h
How it was run: as §1

[3] = tested on: pigweed (Amaranthus retroflexus); test: Test A postemergence; conditions: Amaranthus retroflexus, post-emergence, 240 h
How it was run: as §1

[4] = tested on: ragweed (common ragweed, Ambrosia elatior); test: Test A postemergence; conditions: Ambrosia artemisiifolia, post-emergence, 240 h
How it was run: as §1

[5] = tested on: barnyardgrass (Echinochloa crus-galli); test: Test A postemergence; conditions: Echinochloa crus-galli, post-emergence, 240 h
How it was run: as §1

[6] = tested on: blackgrass (Alopecurus myosuroides); test: Test A postemergence; conditions: Alopecurus myosuroides, post-emergence, 240 h
How it was run: as §1

[7] = tested on: corn (Zea mays); test: Test A postemergence; conditions: Zea mays, post-emergence, 240 h
How it was run: as §1

[8] = tested on: Galium (catchweed bedstraw, Galium aparine); test: Test A postemergence; conditions: Galium, post-emergence, 240 h
How it was run: as §1

[9] = tested on: Kochia (Kochia scoparia); test: Test A postemergence; conditions: Bassia scoparia, post-emergence, 240 h
How it was run: as §1

[10] = tested on: wheat (Triticum aestivum); test: Test A postemergence; conditions: Triticum aestivum, post-emergence, 240 h
How it was run: as §1

[11] = tested on: ryegrass, Italian (Italian ryegrass, Lolium multiflorum); test: Test A preemergence; conditions: Lolium multiflorum, pre-emergence, 240 h, 0 to 100 scale where 0 is no effect and 100 is complete control, read-out: Ryegrass, Italian plant response rating
How it was run: as §1

[12] = tested on: giant foxtail (Setaria faberii); test: Test A preemergence; conditions: Setaria faberi, pre-emergence, 240 h, 0 to 100 scale where 0 is no effect and 100 is complete control, read-out: Foxtail, Giant plant response rating
How it was run: as §1

[13] = tested on: pigweed (Amaranthus retroflexus); test: Test A preemergence; conditions: Amaranthus retroflexus, pre-emergence, 240 h, 0 to 100 scale where 0 is no effect and 100 is complete control, read-out: Pigweed plant response rating
[14] = tested on: ragweed (common ragweed, Ambrosia elatior); test: Test A preemergence; conditions: Ambrosia artemisiifolia, pre-emergence, 240 h, 0 to 100 scale where 0 is no effect and 100 is complete control, read-out: Ragweed plant response rating
How it was run: as §1

[15] = tested on: barnyardgrass (Echinochloa crus-galli); test: Test A preemergence; conditions: Echinochloa crus-galli, pre-emergence, 240 h, 0 to 100 scale where 0 is no effect and 100 is complete control, read-out: Barnyardgrass plant response rating
How it was run: as §1

[16] = tested on: Kochia (Kochia scoparia); test: Test A preemergence; conditions: Bassia scoparia, pre-emergence, 240 h, 0 to 100 scale where 0 is no effect and 100 is complete control, read-out: Kochia plant response rating
How it was run: as §1

[17] = tested on: rice (Oryra sativa); test: Test B flooded paddy test; conditions: Oryza sativa, 250 g ai/ha, Flood; 0 to 100 scale where 0 is no effect and 100 is complete control; read-out: Rice plant response rating
How it was run: (§2)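 Visual ratings (0 none to 100 complete control) are relative to untreated plants, taken 13–15 d after treatment in a greenhouse. Test material went straight into floodwater standing 3 cm above the soil, kept constant, on plants at the 2-leaf stage.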

[18] = tested on: ducksalad (Heteranthera limosa); test: Test B flooded paddy test; conditions: Heteranthera limosa, 250 g ai/ha, Flood; 0 to 100 scale where 0 is no effect and 100 is complete control; read-out: Ducksalad plant response rating
How it was run: as §2

[19] = tested on: sedge, umbrella (small-flower umbrella sedge, Cyperus difformis); test: Test B flooded paddy test; conditions: Cyperus difformis, 250 g ai/ha, Flood; 0 to 100 scale where 0 is no effect and 100 is complete control; read-out: Sedge, Umbrella plant response rating
How it was run: as §2

[20] = tested on: barnyardgrass (Echinochloa crus-galli); test: Test B flooded paddy test; conditions: Echinochloa crus-galli, 250 g ai/ha, Flood; 0 to 100 scale where 0 is no effect and 100 is complete control; read-out: Barnyardgrass plant response rating
How it was run: as §2

[21] = 125 g ai/ha, preemergence, approx. 10 d

Cc1ccc([C@H]2CN(C)C(=O)[C@@H]2C(=O)Nc2cc(F)c(F)c(F)c2F)cc1 [Compound 1071]
pest or weed control at 125 g/ha ([1]; 125 g ai/ha, postemergence, visual injury on 0 to 100 scale (0 no effect, 100 complete control), approx. 10 d, read-out: Ryegrass, Italian plant response rating): 0% | pest or weed control at 31 g/ha ([1]; Postemergence, 31 g ai/ha, visual injury after approx. 10 d, 0 to 100 scale, 0 no effect, 100 complete control, read-out: Plant response rating, Ryegrass, Italian): 0% | pest or weed control at 125 g/ha ([2]; 125 g ai/ha, postemergence, visual injury on 0 to 100 scale (0 no effect, 100 complete control), approx. 10 d, read-out: Foxtail, Giant plant response rating): 80% | pest or weed control at 31 g/ha ([2]; Postemergence, 31 g ai/ha, visual injury after approx. 10 d, 0 to 100 scale, 0 no effect, 100 complete control, read-out: Plant response rating, Foxtail, Giant): 20% | pest or weed control at 125 g/ha ([3]; 125 g ai/ha, postemergence, visual injury on 0 to 100 scale (0 no effect, 100 complete control), approx. 10 d, read-out: Pigweed plant response rating): 0% | pest or weed control at 31 g/ha ([3]; Postemergence, 31 g ai/ha, visual injury after approx. 10 d, 0 to 100 scale, 0 no effect, 100 complete control, read-out: Plant response rating, Pigweed): 0% | pest or weed control at 125 g/ha ([4]; 125 g ai/ha, postemergence, visual injury on 0 to 100 scale (0 no effect, 100 complete control), approx. 10 d, read-out: Ragweed plant response rating): 0% | pest or weed control at 31 g/ha ([4]; Postemergence, 31 g ai/ha, visual injury after approx. 10 d, 0 to 100 scale, 0 no effect, 100 complete control, read-out: Plant response rating, Ragweed): 0% | pest or weed control at 125 g/ha ([5]; 125 g ai/ha, postemergence, visual injury on 0 to 100 scale (0 no effect, 100 complete control), approx. 10 d, read-out: Barnyardgrass plant response rating): 90% | pest or weed control at 31 g/ha ([5]; Postemergence, 31 g ai/ha, visual injury after approx. 10 d, 0 to 100 scale, 0 no effect, 100 complete control, read-out: Plant response rating, Barnyardgrass): 30% | pest or weed control at 125 g/ha ([6]; 125 g ai/ha, postemergence, visual injury on 0 to 100 scale (0 no effect, 100 complete control), approx. 10 d, read-out: Blackgrass plant response rating): 0% | pest or weed control at 31 g/ha ([6]; Postemergence, 31 g ai/ha, visual injury after approx. 10 d, 0 to 100 scale, 0 no effect, 100 complete control, read-out: Plant response rating, Blackgrass): 0% | plant injury at 125 g/ha ([7]; 125 g ai/ha, postemergence, visual injury on 0 to 100 scale (0 no effect, 100 complete control), approx. 10 d, read-out: Corn plant response rating): 0% | Corn plant response rating (crop injury, 0 = no effect, 100 = complete kill) at 31 g/ha ([7]; Postemergence, 31 g ai/ha, visual injury after approx. 10 d, 0 to 100 scale, 0 no effect, 100 complete control): 0% | pest or weed control at 125 g/ha ([8]; 125 g ai/ha, postemergence, visual injury on 0 to 100 scale (0 no effect, 100 complete control), approx. 10 d, read-out: Galium plant response rating): 0% | pest or weed control at 31 g/ha ([8]; Postemergence, 31 g ai/ha, visual injury after approx. 10 d, 0 to 100 scale, 0 no effect, 100 complete control, read-out: Plant response rating, Galium): 0% | pest or weed control at 125 g/ha ([9]; 125 g ai/ha, postemergence, visual injury on 0 to 100 scale (0 no effect, 100 complete control), approx. 10 d, read-out: Kochia plant response rating): 0% | pest or weed control at 31 g/ha ([9]; Postemergence, 31 g ai/ha, visual injury after approx. 10 d, 0 to 100 scale, 0 no effect, 100 complete control, read-out: Plant response rating, Kochia): 0% | plant injury at 125 g/ha ([10]; 125 g ai/ha, postemergence, visual injury on 0 to 100 scale (0 no effect, 100 complete control), approx. 10 d, read-out: Wheat plant response rating): 0% | plant injury at 31 g/ha ([10]; Postemergence, 31 g ai/ha, visual injury after approx. 10 d, 0 to 100 scale, 0 no effect, 100 complete control, read-out: Plant response rating, Wheat): 0% | pest or weed control at 31 g/ha ([11]; 31 g ai/ha, Preemergence): 0% | pest or weed control at 125 g/ha [11, 21]: 0% | pest or weed control at 31 g/ha ([12]; 31 g ai/ha, Preemergence): 90% | pest or weed control at 125 g/ha [12, 21]: 100% | pest or weed control at 31 g/ha ([13]; 31 g ai/ha, Preemergence): 0% | pest or weed control at 125 g/ha [13, 21]: 0% | pest or weed control at 31 g/ha ([14]; 31 g ai/ha, Preemergence): 0% | pest or weed control at 125 g/ha [14, 21]: 0% | pest or weed control at 31 g/ha ([15]; 31 g ai/ha, Preemergence): 40% | pest or weed control at 125 g/ha [15, 21]: 90% | pest or weed control at 31 g/ha ([16]; 31 g ai/ha, Preemergence): 0% | pest or weed control at 125 g/ha [16, 21]: 0% | pest or weed control at 250 g/ha [17]: 0% | pest or weed control at 250 g/ha [18]: 98% | pest or weed control at 250 g/ha [19]: 0% | pest or weed control at 250 g/ha [20]: 40%
